Reference: patent US20250388597A1, “BIFUNCTIONAL PHOTOCROSSLINKING PROBES FOR COVALENT CAPTURE OF PROTEIN-NUCLEIC ACID COMPLEXES IN CELLS” (UNIVERSITY OF SOUTHERN CALIFORNIA, priority 2022, published 2025)

Experiments:
[1] = target: T1, FOXP3 covalently linked to genomic DNA in HEK293T cells (Homo sapiens, UniProt Q9BZS1); assay: TRIzol extraction of genomic DNA from BFPX-treated HEK293T cells, Benzonase digestion, anti-FLAG western blot; type: cell-based; settings: probe 100 μM + UV (lanes 4 and 5) vs controls (lane 1-3)
T1 construct: AVI tag (N); TEV site (N); expressed in transfected cells; host or cells: HEK293T
T1 sequence (Q9BZS1 1-431): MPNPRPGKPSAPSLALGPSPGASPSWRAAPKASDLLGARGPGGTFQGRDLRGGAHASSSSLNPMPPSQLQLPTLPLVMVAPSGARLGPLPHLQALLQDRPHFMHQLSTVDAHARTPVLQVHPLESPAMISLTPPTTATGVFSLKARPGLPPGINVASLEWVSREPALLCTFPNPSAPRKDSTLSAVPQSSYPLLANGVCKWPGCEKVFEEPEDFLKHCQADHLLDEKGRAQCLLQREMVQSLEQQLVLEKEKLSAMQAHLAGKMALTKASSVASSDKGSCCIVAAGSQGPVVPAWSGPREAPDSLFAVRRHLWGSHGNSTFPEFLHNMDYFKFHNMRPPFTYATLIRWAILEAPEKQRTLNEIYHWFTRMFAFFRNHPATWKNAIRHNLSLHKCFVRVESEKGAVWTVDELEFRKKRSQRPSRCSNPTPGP
Experimental: FIG. 14D depicts for the same BFPX-treated HEK293T cells transfected with AVI-TEV-FLAG-FOXP3 described in (FIG. 14C), TRIzol was used to extract genomic DNA. Briefly, for each aliquot of 0.25 million of cells, lyse and homogenize the sample in 200 μl TRIzol™ Reagent. Incubate for 5 minutes to permit complete dissociation of the nucleoproteins complex. 40 μl of chloroform was then added to the sample to incubate for 3 min. The sample was then centrifuged for 15 minutes at 12,000×g at 4° C. to separate into a lower red phenol/chloroform-interphase layer and a colorless upper aqueous phase. The upper aqueous phase was removed by pipetting. […] Run at 200V for 40 minutes on 4%-15% SDS-PAGE gel and analyzed by western blot (Transfer at 20V (40 mA) overnight, block in 2% BSA in PBS for 45 min, Primary antibody: 1:2000 anti-FLAG; room temperature, 2 hr; Secondary antibody: anti mouse light chain kappa 1:100,000; SuperSignal™ Western Blot Substrate Bundle, Femto).
TRIzol uses strong denaturing reagent (e.g. 4 M guanidine thiocyanate) to lyse the cells and completely dissociate nucleoprotein complexes. The extracted genomic DNA was then digested extensively with Benzonase and analyzed by SDS PAGE gel and western blot. […]

FOXP3 in HEK293T cells = target: T2, FOXP3 in HEK293T cells (Homo sapiens, UniProt Q9BZS1); assay: Capture of FLAG-tagged FOXP3 complexes in transfected HEK293T cells, whole cell lysate western blot; type: cell-based; settings: for crosslinked FOXP3 complexes in probe and UV treated cells: SPB-AAD 10 or 100 μM, SPB-PEG4-AAD 100 μM, UV 2-5 min, vs controls lanes 1-3
T2 construct: AVI tag (N); TEV site (N); expressed in transfected cells; host or cells: HEK293T
T2 sequence (Q9BZS1 1-431): T1 sequence (Q9BZS1 1-431)
Experimental: FIG. 14C depicts 10 cm plate HEK293T cells (˜8.8 million) were transfected with 2 μg AVI-TEV-FLAG-FOXP3 for about 48 hr. The cells were harvested into 1.6 ml room temperature 1×DPBS buffer (with no calcium and magnesium). The cells were aliquoted into 300 μl per sample and each sample was added SPB-AAD 10 μM (A10) or 100 μM (A100) or SPB-PEG4-AAD 100 μM (p100). The samples were incubated at 37° C. for 30 min in dark with rotation. The samples were transferred to the middle wells of a 24-well plate (Corning #3527). With 300 μl, the liquid is about 1.5 mm high in a 24-well plate well. The samples on the 24-well plate were then UV illuminated (LED Chip: 21.4 mm×21.4 mm, 365-370 nm, 30 Watt, sample distance (the bottom of the well plate to the lamp plane) is 4 cm, exposure time 2-5 min at 4 degree C.). The BFPX-treated cells were recovered from the 24-well plate and washed using 1×DPBS, centrifuged at 500 g for 5 min to pellet the cells and remove the DPBS buffer. 0.5 million of the BFPX-treated cells was added 20 μl 1×RIPA buffer, shake on ice for 15 min to lyse the cells. The lysis mixture was then added 3 μl 10× MNase, 0.25 μl RnaseA, 12.5 Unit Mnase, and ddw to 30 μl, incubated at 37° C. for 15 min. The lysis mixture was then added 6 μl SDS loading dye (2% SDS), boil 10 min at 95° C. Run at 200V for 40 minutes on 4%-15% SDS-PAGE gel and analyzed by western blot (Transfer at 18V (30 mA) overnight, block in 2% BSA in PBS for 45 min, Primary antibody: 1:2000 anti-FLAG; room temperature, 2 hr; Secondary antibody: anti mouse light chain kappa 1: 100,000; Femto Signal ECL).
Finally, we tested the capture of transcription factors bound to genomic DNA inside cells. HEK293T cells transfected with FLAG-tagged FOXP3 were treated with various combination of UV illumination and probe (SPB-AAD: A; and P: SPB-PEG4-AAD). The cells were lysed in 1×RIPA buffer followed by RNase and MNase treatment. The whole cell lysate were then added SDS loading dye, heated at 95 degree C. and run on a 4-15% SDS PAGE gel and analyzed by western blot using an anti-FLAG antibody.

Structure (SMILES) | FOXP3 co-extracted with genomic DNA under strong denaturing conditions [1] | dependence of crosslinked FOXP3 complex formation on probe concentration (FOXP3 in HEK293T cells; 10 μM (lane 4) vs 100 μM (lane 6)) | crosslinked FOXP3 complexes in probe and UV treated cells (FOXP3 in HEK293T cells)
C#CCCC1(CCNC(=O)CCCOc2c3occc3cc3ccc(=O)oc23)N=N1 [SPB-AAD, N-(2-(3-(but-3-yn-1-yl)-3H-diazirin-3-yl)ethyl)-4-((7-oxo-7H-furo[3,2-g]chromen-9-yl)oxy)butanamide] | showed FOXP3 proteins | dosage dependent on probe concentration | higher molecular weight species containing FOXP3 were observed
C#CCCC1(CCNC(=O)CCOCCOCCOCCOCCNC(=O)CCCOc2c3occc3cc3ccc(=O)oc23)N=N1 [SPB-PEG4-AAD, N-(2-(3-(but-3-yn-1-yl)-3H-diazirin-3-yl)ethyl)-1-(4-((7-oxo-7H-furo[3,2-g]chromen-9-yl)oxy)butanamido)-3,6,9,12-tetraoxapentadecan-15-amide] | – | – | higher molecular weight species containing FOXP3 were observed
